US4260613A, “Pyridoxine derivatives” (Crinos Industria Farmacobiologica S.p.A., priority 1978, dated 1981)

Legend:
Type in all cases: in vivo
mouse = assay: Acute toxicity, LD50 per os in the mouse (sole dose, 18 h fasting); conditions: in words, vs 2-(4-isobutylphenyl)-propionic acid
Description: The acute toxicity has been determined by administering the substances per os in a sole dose to the mouse after 18 hours of fasting. The LD50 has been determined according to Litchfield and Wilcoxon (J. Pharmacol. Exp. Ther. 96, 99, 1949).

rat = assay: Ulcer-causing activity, UD50 per os in the rat (gastric lesions 7 h after treatment); conditions: in words, vs 2-(4-isobutylphenyl)-propionic acid
Description: The ulcer-causing activity has been determined by administering the substances per os to rats which have fasted 18 hours and evaluating the presence of gastric lesions 7 hours after the treatment. The UD50 has been determined according to Litchfield and Wilcoxon (J. Pharmacol. Exp. Ther. 96, 99, 1949).

[1] = system: caraganin-edema, normal rat; assay: Caraganin-edema test according to Winter et al in the normal rat (anti-inflammatory activity); conditions: 25 mg/kg per os, 3hrs, vs controls
Description: Caraganin-edema test according to Winter et al (Proc. Soc. Exp. Biol. Med., 111, 544, 1962) in the normal rat. The anti-inflammatory activity is expressed as a percentage of inhibition, after 3 and 6 hours, with respect to the controls.

Compound	toxicity with respect to the free acid (mouse)	ulcer-causing activity with respect to the free acid (rat)	ANTI-INFLAMMATORY Inhibition % [1]
Cc1ncc(COC(=O)C(C)c2ccc(CC(C)C)cc2)c2c1OC(C)(C)OC2 (centres unmarked) [2-(4-isobutylphenyl)-propionic isopropylidene-pyridoxine 5-ester]	lower toxicity	lower toxicity and ulcer-causing activity	
Cc1ncc(COC(=O)C(C)c2ccc(CC(C)C)cc2)c(CO)c1O (centres unmarked) [2-(4-isobutyl-phenyl)-propionic pyridoxine 5-ester]	lower toxicity	lower toxicity and ulcer-causing activity	43.6%
